A short description of series [1]: Chiral stability under long-term and accelerated storage conditions. The note with it: for colour and chirality after storage: −20° C., 5° C., 25° C./60% RH 3 months, 40° C./75% RH 1 month. Type of series: physicochemical. As to the method:
Isomer stability under long-term and accelerated conditions was studied.
Compound A and isomers A-P1 and A-P2 were investigated for traits and isomeric stability at −20±5° C., 5° C.±3° C., 25° C.±2° C. (60%±5% RH) and 40° C.±2° C.

Series [2] has as its system human lung cancer NCI-H460 cells. Description: In vivo pharmacodynamics, NCI-H460 subcutaneous xenograft model. The arrangement: species or system BALB/c nude mice. The conditions noted are these: for Tumor volume: 100 mg/kg i.p.
For series [3], the system named is HuPrime model PA1222 human pancreatic cancer. Description: In vivo pharmacodynamics, pancreatic cancer PA1222 PDX model. The conditions noted are these: for Tumor volume: 120 mg/kg i.p. How it is done: The test was divided into groups of test drug Gemcitabine 120 mg/kg group, test drug Compound A 10 mg/kg and 7.5% anhydrous ethanol+7.5% polyoxyethylene (35) castor oil+85% glucose injection DSW (pH 7.4) vehicle control group, a total of 3 groups, with 5 mice per group. […] Test drug Gemcitabine (Gemcitabine) 120 mg/kg group was administered intraperitoneally, once a week for three consecutive weeks.

The target in the next series is T1, P-gp (Homo sapiens, UniProt P08183).
T1 construct: expressed in transfected cells; host or cells: MDCKII-MDR1 cells
The series is described as follows: P-gp substrate evaluation, MDCKII-MDR1 penetration test with or without Verapamil. Type of series: in vitro ADME. The conditions noted are these: Verapamil 0 μM. How it is done: The conditions of the incubator were set as 37° C., 5% CO2, and 95% of the relative humidity.
After that, the MDCKII-MDR1 cells can be used for the penetration test.
(1) MDCKII-MDR1 transwell culture plate was taken out from the incubator.
(6) The upper and lower transportations were pooled and then incubated at 37° C. for 2 h.
After the sample tubes were vortexed for 10 min, and centrifuged at 3220 g for 30 min. […] Each sample was adopted to the three parallel incubation.
Efflux Ratio was calculated by the following formula: […]
Recovery was calculated by the following formula: […]

Setting [4] is: 25° C. ± 2° C./60% ± 5% RH, 1 month.
Where [5] appears, read: 25° C. ± 2° C./60% ± 5% RH, 3 months.
[6] abbreviates: 40° C. ± 2° C./75% ± 5% RH, 1 month.

SMILES strings stand for the structures.

T1 sequence (P08183 whole entry): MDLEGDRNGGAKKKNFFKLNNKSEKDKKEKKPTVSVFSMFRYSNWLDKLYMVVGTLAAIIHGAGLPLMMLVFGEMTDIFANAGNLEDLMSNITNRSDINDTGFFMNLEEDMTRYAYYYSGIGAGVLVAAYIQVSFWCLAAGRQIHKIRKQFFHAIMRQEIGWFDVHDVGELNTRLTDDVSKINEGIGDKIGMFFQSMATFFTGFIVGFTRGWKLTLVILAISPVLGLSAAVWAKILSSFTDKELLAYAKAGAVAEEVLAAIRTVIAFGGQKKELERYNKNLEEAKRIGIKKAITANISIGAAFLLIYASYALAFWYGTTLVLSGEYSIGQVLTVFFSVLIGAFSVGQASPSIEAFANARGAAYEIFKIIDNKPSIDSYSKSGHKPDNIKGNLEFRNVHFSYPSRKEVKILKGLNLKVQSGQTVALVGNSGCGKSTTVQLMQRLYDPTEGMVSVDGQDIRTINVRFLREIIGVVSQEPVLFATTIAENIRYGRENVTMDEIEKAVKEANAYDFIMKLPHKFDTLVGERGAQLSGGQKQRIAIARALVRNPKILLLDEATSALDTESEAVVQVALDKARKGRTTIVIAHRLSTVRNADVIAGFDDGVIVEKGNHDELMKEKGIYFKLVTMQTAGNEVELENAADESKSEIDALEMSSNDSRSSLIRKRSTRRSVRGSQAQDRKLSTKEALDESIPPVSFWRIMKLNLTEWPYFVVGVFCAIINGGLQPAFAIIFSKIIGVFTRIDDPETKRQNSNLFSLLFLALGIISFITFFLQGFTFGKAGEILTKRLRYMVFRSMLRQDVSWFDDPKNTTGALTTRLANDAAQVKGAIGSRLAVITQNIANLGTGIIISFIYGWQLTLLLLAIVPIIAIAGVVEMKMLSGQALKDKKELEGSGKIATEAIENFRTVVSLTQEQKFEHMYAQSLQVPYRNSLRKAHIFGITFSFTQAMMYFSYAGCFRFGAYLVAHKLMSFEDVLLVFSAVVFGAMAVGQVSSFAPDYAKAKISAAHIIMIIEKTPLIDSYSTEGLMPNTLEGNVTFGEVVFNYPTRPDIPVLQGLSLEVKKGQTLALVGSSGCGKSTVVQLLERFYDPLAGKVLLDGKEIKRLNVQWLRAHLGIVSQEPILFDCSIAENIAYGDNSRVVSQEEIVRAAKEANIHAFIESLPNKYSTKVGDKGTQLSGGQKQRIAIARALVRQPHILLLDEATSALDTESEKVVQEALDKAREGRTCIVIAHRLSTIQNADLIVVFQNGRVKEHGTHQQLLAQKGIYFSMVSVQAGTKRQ

As to `O=[N+]([O-])c1ccc(C(OP(=O)(N2CC2)N2CC2)C(F)(F)F)cc1Oc1ccc(-c2ccc(F)cc2)c(F)c1` (single isomer, unassigned) [A-P1], the “Isomer peak A-P1” value in series [1] (0 month) is 99.92%; in series [1] (5° C. ± 3° C., 1 month), 99.92%; in series [1] (5° C. ± 3° C., 3 months), 99.92%; in series [1] (setting [4]) it was 99.92%; in series [1] (setting [5]), 99.92%; in series [1] (setting [6]), 99.91%. Also, the “Isomer peak A-P1” value in series [1] (−20 ± 5° C., 3 months) is given as 99.92%. Further, the “Isomer peak A-P2” value is listed as 0.08% in series [1] (0 month); 0.08% in series [1] (5° C. ± 3° C., 1 month); 0.08% in series [1] (5° C. ± 3° C., 3 months); 0.08% in series [1] (setting [4]); 0.08% in series [1] (setting [5]); 0.09% in series [1] (setting [6]). Further, the “Isomer peak A-P2” value in series [1] (−20 ± 5° C., 3 months) is 0.08%. For the same compound, the Isomer transformation in series [1] (5° C. ± 3° C., 1 month) is recorded as 0.00%; in series [1] (5° C. ± 3° C., 3 months), 0.00%; in series [1] (setting [4]), 0.00%; in series [1] (setting [5]), 0.00%; in series [1] (setting [6]) it was 0.01%; in series [1] (−20 ± 5° C., 3 months), 0.00%. The “colour and chirality after storage” value in series [1] is “essentially no change”.

As for `O=[N+]([O-])c1ccc(C(OP(=O)(N2CC2)N2CC2)C(F)(F)F)cc1Oc1ccc(-c2ccc(F)cc2)c(F)c1` (single isomer, unassigned) [A-P2], the “Isomer peak A-P1” value turned out to be 0.25% in series [1] (0 month); 0.25% in series [1] (5° C. ± 3° C., 1 month); 0.25% in series [1] (5° C. ± 3° C., 3 months); 0.25% in series [1] (setting [4]); 0.25% in series [1] (setting [5]); 0.26% in series [1] (setting [6]). In addition, in series [1] (−20 ± 5° C., 3 months), the “Isomer peak A-P1” value amounted to 0.26%. For the same compound, the “Isomer peak A-P2” value in series [1] (0 month) was found to be 99.75%; in series [1] (5° C. ± 3° C., 1 month), 99.75%; in series [1] (5° C. ± 3° C., 3 months), 99.75%; in series [1] (setting [4]), 99.75%; in series [1] (setting [5]) it was 99.75%; in series [1] (setting [6]), 99.74%. In addition, the “Isomer peak A-P2” value in series [1] (−20 ± 5° C., 3 months) was 99.74%. In addition, the Isomer transformation was 0.00% in series [1] (5° C. ± 3° C., 1 month); 0.00% in series [1] (5° C. ± 3° C., 3 months); 0.00% in series [1] (setting [4]); 0.00% in series [1] (setting [5]); 0.01% in series [1] (setting [6]); −0.01% in series [1] (−20 ± 5° C., 3 months). In addition, in series [1], the “colour and chirality after storage” value was “essentially no change”.

`N.N.O=C([O-])C1(C(=O)[O-])CCC1.[Pt+2]` [Carboplatin, reference compound]: the Tumor volume turned out to be 145.46 mm^3 in series [2] (Day 7); 262.15 mm^3 in series [2] (Day 10); 409.97 mm^3 in series [2] (Day 14); 529.44 mm^3 in series [2] (Day 17); 761.56 mm^3 in series [2] (Day 21); 960.42 mm^3 in series [2] (Day 24). In addition, the Tumor volume in series [2] (Day 28) turned out to be 1073.28 mm^3; in series [2] (Day 31), 1230.93 mm^3; in series [2] (Day 35), 1577.99 mm^3. In addition, the “Relative tumor volume (x ± S)” value in series [2] (100 mg/kg, QWx3, i.p., Day 31) is given as 8.58 ± 1.16. Further, the “T/C (%)” value in series [2] (100 mg/kg, QWx3, i.p., Day 31) was determined as 64.81%. Further, the “TGI (%)” value in series [2] (100 mg/kg, QWx3, i.p., Day 31) was determined as 35.19%. Also, in series [2] (100 mg/kg, QWx3, i.p., Day 31, in mm³ (unit assumed)), the “Tumor volume (x ± S)” value came to 1230.93 ± 258.17.

For `Nc1ccn([C@@H]2O[C@H](CO)[C@@H](O)C2(F)F)c(=O)n1` [Gemcitabine, reference compound], the Tumor volume in series [3] (Day 0) is reported as 111.91 mm^3; in series [3] (Day 3), 136.17 mm^3; in series [3] (Day 7) it was 153.75 mm^3; in series [3] (Day 10) it was 157.55 mm^3; in series [3] (Day 14) it was 147.44 mm^3; in series [3] (Day 17), 136.71 mm^3. Further, the Tumor volume in series [3] (Day 21) is 138.01 mm^3; in series [3] (Day 24), 153.69 mm^3; in series [3] (Day 28), 166.11 mm^3. In addition, in series [3] (120 mg/kg, QWx3, i.p., Day 28), the “Relative tumor volume (x ± S)” value was found to be 1.49 ± 0.19. Moreover, the “T/C (%)” value in series [3] (120 mg/kg, QWx3, i.p., Day 28) amounted to 42.83%. Further, the “TGI (%)” value in series [3] (120 mg/kg, QWx3, i.p., Day 28) was 57.17%. Moreover, in series [3] (120 mg/kg, QWx3, i.p., Day 28), the “Tumor volume (x ± S)” value was determined as 166.11 ± 24.40.

With `COc1cc2nc(N3CCN(C(=O)c4ccco4)CC3)nc(N)c2cc1OC` [Prazosin], the “Efflux Ratio” value at P-gp worked out at 2.90.
